The subject of assay [1] is 700022-resistant line of L. mexicana (r22) axenic amastigotes. The assay is described as follows: EC50 in 700022-resistant L. mexicana (r22) axenic amastigotes. The format is cell-based, Leishmania mexicana. Particulars: for r22 28 weeks RI (resistance index, EC50 in r22/EC50 in WT): 28 weeks of 700022 selection pressure; for EC50: Leishmania mexicana, read-out: r22 28 weeks EC50, r22 after 28 weeks of 700022 selection pressure. On the procedure:
A 700022-resistant line of L. mexicana (r22) was generated using a previously reported method (Figure S3). […] All leishmanicidal sterols identified were assayed against r22 after 8 weeks of 700022 pressure and cross-resistance was found against all four compounds, each with a similar resistance index of between 4–5 (Figure 6c). Following 28 weeks of selection, the morphology of the r22 promastigotes was compared to that of WT (Figure 6d). […] The body area of both promastigotes and amastigotes was also assessed, noting a small (c 20%) decrease in the body area of r22 parasites compared to WT strains (Figure S3).
Figure 6 Comparison between wildtype and 700022-resistant (r22) L. mexicana cell lines. Log concentration versus normalised (compared to untreated control) growth curves for wildtype (WT) and corresponding 700022-selected (r22) L. mexicana (a) promastigotes and (b) axenic amastigotes. Error bars represent upper and lower limits of the StDev (n = 9). […] The resistance index (EC50 in r22/EC50 in WT) are shown for each compound. (d) Scanning electron micrographs of WT and r22 promastigotes illustrating the shortened flagellum in r22 parasites. (e) Analysis of flagellum length in WT and r22 promastigotes (n = 287 of each strain) reported using a box and whisker plot (boxes represents the 25–75th percent distribution with the mean as a horizontal line, whiskers represent the distribution of all values) with a statistically significant difference (Mann–Whitney U test, p-value < 2.2 × 10^−16). […] Error bars represent upper and lower limits of the StDev (n = 9). […] The resistance index (EC50 in r22/EC50 in WT) are shown for each compound. TEXT PRINTED IN THE PICTURE: (c) 700022: 4.1 | (c) 700107: 4.1 | (c) 700136: 5.3 | (c) 700240: 5.3 | (f) 700022: 42.1 | (f) Milt: 17.9 | (f) Pent: 0.75 | (f) AmpB: 1.22 DOUBTS OF THE COPYIST ABOUT THIS PICTURE: Panels c and f: the numbers printed above the bar pairs have no measure or unit printed with them in the picture.
L. mexicana parasites were grown in increasing concentrations of 700022 in a stepwise manner, as previously described. […] A dose response assay of the newly selected promastigotes was completed as stated above, with the exception of the seeding density of 1 × 10^5 cells/mL. At this point, the drug pressure was increased to the concentration of the new EC50 value.

Assay [2] concerns L. mexicana axenic amastigotes. The assay is described as follows: Concentration-response EC50, L. mexicana axenic amastigotes (WT). The format is cell-based, Leishmania mexicana. The following applies: Leishmania mexicana.

Molecules are shown by their SMILES. Like-named read-outs stand apart in the source and are kept apart here.

A word on the EC50: it is the concentration at which the effect is half-maximal. In the case of `CCCCCCCCCCCCCCCCOP(=O)([O-])OCC[N+](C)(C)C` [Miltefosine, reference compound], in assay [1], the “r22 28 weeks RI (resistance index, EC50 in r22/EC50 in WT)” value was 17.9 and the EC50 was 20 µM. Besides, the EC50 in assay [2] (read-out: WT EC50, L. mexicana WT axenic amastigotes) came out at 1.1 µM.

For `C[C@@H]1[C@H](O)[C@@H](C)/C=C/C=C/C=C/C=C/C=C/C=C/C=C/[C@H](O[C@@H]2O[C@H](C)[C@@H](O)[C@H](N)[C@@H]2O)C[C@@H]2O[C@](O)(C[C@@H](O)C[C@@H](O)[C@H](O)CC[C@@H](O)C[C@@H](O)CC(=O)O[C@H]1C)C[C@H](O)[C@H]2C(=O)O` [Amphotericin B, reference compound], the EC50 in assay [1] was found to be 0.28 µM.

On to `N=C(N)c1ccc(OCCCCCOc2ccc(C(=N)N)cc2)cc1` [Pentamidine, reference compound], for which, in assay [1], the “r22 28 weeks RI (resistance index, EC50 in r22/EC50 in WT)” value is given as 0.75 and the EC50 was 5.1 µM. Also, the EC50 in assay [2] (L. mexicana WT axenic amastigotes, read-out: WT EC50) stood at 6.8 µM.

For the origin of these results see PMC7998250, “Temperate Zone Plant Natural Products—A Novel Resource for Activity against Tropical Parasitic Diseases” (Pharmaceuticals, 2021).
